Results on one compound are retold here after the NIST ThermoML archive (doi:10.1016/j.fluid.2015.07.055).

Numbers after ± are expanded uncertainties.

The conditions of data set [1]: Crystal; DTA.
The nature of data set [2]: Molar enthalpy of transition or fusion. The note with it: Crystal; DSC.

In the case of `CCC(C)(C)C(=O)O[C@H]1C[C@@H](C)C=C2C=C[C@H](C)[C@H](CC[C@@H]3C[C@@H](O)CC(=O)O3)[C@H]21` [(+)-Simvastatin], the Normal melting temperature in data set [1] turned out to be 142.0 ± 1.1 °C. Also, the “Molar enthalpy of transition or fusion” value in data set [2] amounted to 30.1 ± 1.4 kJ/mol.
